Measurements reported in US5858684A, “Method of screening calcium receptor-active molecules” (priority 1995, dated 1999).
Like-named read-outs stand apart in the source and are kept apart here.

Legend:
net positive charge = format: physicochemical
[1] = system: parathyroid cell calcium receptor; format: cell-based; conditions: for response of bovine parathyroid cells or Xenopus oocytes expressing calcium receptors to mGluR agonists: bovine parathyroid cells or calcium receptor-expressing Xenopus oocytes; for mobilization of intracellular Ca2+: 500 μM
Experimental: For example, bovine parathyroid cells loaded with fura-2 are initially suspended in buffer containing 0.5 mM CaCl2. A test substance is added to the cuvette in a small volume (5-15 μl) and changes in the fluorescence signal are measured. Cumulative increases in the concentration of the test substance are made in the cuvette until some predetermined concentration is achieved or no further changes in fluorescence are noted.
This section describes procedures used to obtain and treat parathyroid cells from calves and humans. […] Human parathyroid glands, were obtained from patients undergoing surgical removal of parathyroid tissue for primary or uremic hyperparathyroidism (uremic HPT), and were treated similarly to bovine tissue.
Glands were trimmed of excess fat and connective tissue and then minced with fine scissors into cubes approximately 2-3 mm on a side. Dissociated parathyroid cells were prepared by collagenase digestion and then purified by centrifugation in Percoll buffer. The resultant parathyroid cell preparation was essentially devoid of red blood cells, adipocytes, and capillary tissue as assessed by phase contrast microscopy and Sudan black B staining. Dissociated and purified parathyroid cells were present as small clusters containing 5 to 20 cells.
(§1) The cells were then pelleted, resuspended in the same buffer, but lacking the ester, and incubated a further 15 minutes at 37° C. The cells were subsequently washed twice with PCB containing 0.5 mM CaCl2 and 0.5% BSA and maintained at room temperature (about 20° C.). Immediately before use, the cells were diluted five-fold with prewarmed 0.5 mM CaCl2 -PCB to obtain a final BSA concentration of 0.1%. The concentration of cells in the cuvette used for fluorescence recording was 1-2×10^6 /ml.
(§2) The fluorescence of indicator-loaded cells was measured at 37° C. in a spectrofluorimeter (Biomedical Instrumentation Group, University of Pennsylvania, Philadelphia, Pa.) equipped with a thermostated cuvette holder and magnetic stirrer using excitation and emission wavelengths of 340 and 510 nm, respectively. […] Leakage of dye is dependent on temperature and most occurs within the first 2 minutes after warming the cells in the cuvette. Dye leakage increases only very slowly thereafter. To correct the calibration for dye leakage, cells were placed in the cuvette and stirred at 37° C. for 2-3 minutes. The cell suspension was then removed, the cells pelleted, and the supernatant returned to a clean cuvette. […] This estimate was subtracted from the apparent Fmin.
Dissociated bovine parathyroid cells were purified on gradients of Percoll and cultured overnight in serum-free medium.

[2] = system: increases in [Ca2+]i elicited by extracellular Ca2+ in bovine parathyroid cells; experiment: block of extracellular Ca2+-induced [Ca2+]i increase / Ca2+ influx in bovine parathyroid cells; format: cell-based; conditions: 100 μM
Experimental: as §1, §2

[3] = target: T1, bovine parathyroid cell calcium receptor (BoPCaR 1) (Bos taurus, UniProt P35384); experiment: Cl- current in Xenopus oocytes expressing BoPCaR 1; format: cell-based
T1 construct: Xenopus oocytes were injected with BoPCaR 1, the 5.3 Kb cDNA encoding a bovine parathyroid cell calcium receptor; expressed in transfected cells; host or cells: Xenopus laevis oocytes injected with cRNA/cDNA of BoPCaR 1
T1 sequence (P35384 20-1085): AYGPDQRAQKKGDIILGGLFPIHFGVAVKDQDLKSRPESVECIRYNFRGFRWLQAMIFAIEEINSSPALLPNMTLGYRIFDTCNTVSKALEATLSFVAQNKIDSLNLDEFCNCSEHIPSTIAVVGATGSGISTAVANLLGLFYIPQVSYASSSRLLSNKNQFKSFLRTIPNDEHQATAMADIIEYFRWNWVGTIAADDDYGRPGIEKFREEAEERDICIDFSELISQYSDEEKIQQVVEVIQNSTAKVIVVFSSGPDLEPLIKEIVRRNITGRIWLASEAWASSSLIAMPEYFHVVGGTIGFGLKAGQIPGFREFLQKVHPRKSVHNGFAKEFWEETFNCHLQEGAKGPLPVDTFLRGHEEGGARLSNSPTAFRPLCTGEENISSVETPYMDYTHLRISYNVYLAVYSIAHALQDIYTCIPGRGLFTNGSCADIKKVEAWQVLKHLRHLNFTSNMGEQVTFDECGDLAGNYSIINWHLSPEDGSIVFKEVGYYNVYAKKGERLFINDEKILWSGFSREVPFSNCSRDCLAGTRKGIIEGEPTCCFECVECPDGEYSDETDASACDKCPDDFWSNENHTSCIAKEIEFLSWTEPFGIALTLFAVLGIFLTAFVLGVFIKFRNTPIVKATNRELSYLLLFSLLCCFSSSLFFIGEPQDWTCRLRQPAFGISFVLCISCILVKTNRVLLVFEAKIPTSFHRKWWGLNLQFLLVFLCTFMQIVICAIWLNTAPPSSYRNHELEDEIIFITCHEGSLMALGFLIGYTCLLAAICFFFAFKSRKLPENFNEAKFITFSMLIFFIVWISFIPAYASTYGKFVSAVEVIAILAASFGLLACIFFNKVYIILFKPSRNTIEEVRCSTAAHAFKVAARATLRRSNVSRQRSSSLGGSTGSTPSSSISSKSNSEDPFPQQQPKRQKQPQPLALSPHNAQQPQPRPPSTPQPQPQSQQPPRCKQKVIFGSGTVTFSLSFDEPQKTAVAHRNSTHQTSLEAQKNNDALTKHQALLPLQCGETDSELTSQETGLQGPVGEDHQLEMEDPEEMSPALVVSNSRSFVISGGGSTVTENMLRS
Experimental: Following incubation, an oocyte was placed into a 100-μl plastic chamber and superfused with MBS at a flow rate of 0.5 ml/min using a peristaltic pump. Test molecules or inorganic polycations were added by rapidly moving the tubing into different buffers. Recording and current-passing electrodes were constructed from thin-wall capillary tubing pulled to a resistance of 1-3 Mohms and filled with 3M KCl. […] Currents were recorded directly onto a strip chart recorder.
The techniques used to clone the parathyroid calcium receptor are briefly described in this example; a more complete description of the techniques is provided in preceding sections, which describe techniques which may be used to clone additional forms of the Ca^2+ -receptor from other cell types. Poly(A^+)-enriched mRNA was initially prepared from bovine parathyroid glands by extracting with guanidinium thiocyanate, centrifugation through CsCl and oligo(dT) cellulose chromatography. […] No such currents were elicited in control eggs injected with water.
These responses are mediated by the following series of biochemical events:
Xenopus oocytes were injected with BoPCaR 1, the 5.3 Kb cDNA encoding a bovine parathyroid cell calcium receptor as described in Example 25. After two to three days, Cl^- currents were examined in the oocytes using a two-electrode voltage clamp.
Xenopus oocytes were injected with BoPCaR 1 as described in Example 25. After two to three days, Cl^- currents were examined in the oocytes using two electrode voltage clamp.

NCCNCCNCCNCCN [Tetraethylenepentamine (TEPA), Tetraethylenepentamine]
Net (+) Charge (Table 1) (net positive charge): +5

NCCCCCN [Cadaverine, cadaverine]
net positive charge (net positive charge): +2

N[C@@]1(C(=O)O)CC[C@@H](C(=O)O)C1 (relative stereo) [trans-ACPD]
response of bovine parathyroid cells or Xenopus oocytes expressing calcium receptors to mGluR agonists [1]: did not respond

NCCCCN [Putrescine]
net positive charge (net positive charge): +2

COC(=O)C1=C(C)NC(C)=C(C(=O)OC)C1c1ccccc1[N+](=O)[O-] [nifedipine]
effect on basal [Ca2+]i or increases evoked by extracellular Ca2+ [1]: None

NCCCN(CCCN)CCCNCCCCNCCCN(CCCN)CCCN [NPS 382, N^1,N^1,N^5,N^14, N^14-tetrakis-(3-aminopropyl)spermine]
Net (+) Charge (Table 1) (net positive charge): +8

CC1=C(C(=O)OC(C)C)C(c2cccc3nonc23)C([N+](=O)[O-])=C(C)N1 (single isomer, unassigned; (+)) [(+) 202-791]
effect on basal [Ca2+]i or increases evoked by extracellular Ca2+ ([1]; 1 μM): None

COc1ccc(CCN(C)CCCC(C#N)(c2cc(OC)c(OC)c(OC)c2)C(C)C)cc1OC [D-600]
potentiation of mobilization of intracellular Ca2+ elicited by extracellular divalent cations ([1]; 100 μM): potentiated the mobilization of intracellular | change in [Ca2+]i ([1]; 100 μM, 0.5 mM extracellular Ca2+): evoked no change | increase in [Ca2+]i at intermediate extracellular Ca2+ ([1]; 100 μM, 1-[…] extracellular Ca2+): small, but robust increase | block of influx of extracellular Ca2+ [2]: blocked the influx of extracellular

N=C(N)NCCC[C@H](N)C(=O)NCCCNCCCNCCCCCNC(=O)[C@H](CC(N)=O)NC(=O)Cc1ccc(O)cc1O [Argiotoxin-636]
increase in [Ca2+]i (words) ([1]; 400 μM): did not elicit increases | potentiation of cytosolic Ca2+ response to extracellular Ca2+ ([1]; 400 μM): did potentiate cytosolic | increase in [Ca2+]i (words) ([1]; tested at concentrations similar to 100 to 300 μM): had no effect | net positive charge (net positive charge): +4

COc1cccc([C@H](C)NCCCc2ccccc2Cl)c1 [NPS S-568]
concentration eliciting responses ([3]; BoPCaR 1-injected oocytes): 100 µM

NCCNCCNCCN [Triethylenetramine (TETA), triethylenetetramine]
EC50 ([1]; read-out: EC50 (Table 3)): […] | Net (+) Charge (Table 1) (net positive charge): +4

COc1ccc(CCN(C)CCCC(C#N)(c2ccc(OC)c(OC)c2)C(C)C)cc1OC (stereo not shown) [verapamil]
block of influx of extracellular Ca2+ [2]: blocked the influx of extracellular

O=C(O)CN(CCOCCOCCN(CC(=O)O)CC(=O)O)CC(=O)O [EGTA]
effect on inward currents to Gd3+ ([3]; EGTA 100 μM, Gd3+ 600 μM): prevents oocytes expressing the calcium receptor from responding

C[C@@H](NCCC(c1ccccc1)c1ccccc1)c1ccccc1 [R-Fendiline]
EC50 ([1]; bovine parathyroid cells, fura-2, read-out: EC50 PARATHYROID (Table 6)): 9 µM

O=C(O)c1c2ccccc2cc2ccccc12 [9AC]
effect on activated chloride currents [3]: blocks the currents

CCCC(=O)N[C@@H](Cc1ccc(O)cc1)C(=O)NCCCCNCCCNCCCN [Philanthotoxin-433]
mobilization of intracellular Ca2+ [1]: without effect | net positive charge (net positive charge): +3

NC[C@H]1O[C@H](O[C@H]2[C@H](O)[C@@H](O[C@H]3O[C@H](CO)[C@@H](O)[C@H](N)[C@H]3O)[C@H](N)C[C@@H]2N)[C@H](N)[C@@H](O)[C@@H]1O [Bekanamycin]
EC50 ([1]; read-out: EC50 for mobilization of intracellular Ca2+ (Table 4), screened as in Example 1): 200 µM | Net (+) Charge (Table 1) (net positive charge): +5 | net positive charge (net positive charge; pH 7.3): +5

CC1=C(C(=O)OC(C)C)C(c2cccc3nonc23)C([N+](=O)[O-])=C(C)N1 (single isomer, unassigned; (-)) [(-) 202-791]
effect on basal [Ca2+]i or increases evoked by extracellular Ca2+ ([1]; 1 μM): None

N=C(N)NCCC[C@H](N)C(=O)NCCCNCCCNCCCCCNC(=O)[C@H](CC(N)=O)NC(=O)Cc1c[nH]c2cccc(O)c12 [Argiotoxin-659]
concentrations evoking transient increases in [Ca2+]i ([1]; bovine parathyroid cells): 100 to 300 µM | EC50 ([1]; read-out: EC50 (Table 1), parathyroid cells, screened as in Example 1): 300 µM | EC50 ([1]; read-out: EC50 for mobilization of intracellular Ca2+, bovine parathyroid cells): 300 µM | Net (+) Charge (Table 1) (net positive charge): +4 | net positive charge (net positive charge): +4

N[C@@H](Cn1oc(=O)[nH]c1=O)C(=O)O [quisqualate]
response of bovine parathyroid cells or Xenopus oocytes expressing calcium receptors to mGluR agonists [1]: did not respond

NCCCN(CCCN)CCCN(CCCN)CCCCN(CCCN)CCCN(CCCN)CCCN [NPS 381, N^1,N^1,N^5, N^10,N^14, N^14-hexakis-(3-aminopropyl) spermine]
Net (+) Charge (Table 1) (net positive charge): +10

COc1ccc([C@@H]2Sc3ccccc3N(CCN(C)C)C(=O)[C@@H]2OC(C)=O)cc1 [diltiazem]
effective concentration, like verapamil and D-600 [1]: 100 µM

Gentamicin
Net (+) Charge (Table 1) (net positive charge): +5 | net positive charge (net positive charge; pH 7.3): +5

[H]/N=C(/N)N[C@H]1[C@H](O)[C@@H](O)[C@H](O[C@@H]2O[C@@H](C)[C@](O)(C=O)[C@H]2O[C@@H]2O[C@@H](CO)[C@H](O)[C@@H](O)[C@@H]2NC)[C@@H](N/C(N)=N\[H])[C@@H]1O [Streptomycin]
EC50 ([1]; parathyroid cells, screened as in Example 1, read-out: EC50 (Table 1)): 600 µM | Net (+) Charge (Table 1) (net positive charge): +3 | net positive charge (net positive charge; pH 7.3): +3

COc1cccc(C(C)NCCC(c2ccccc2)c2ccccc2)c1 (stereo not shown) [meta-Methoxyfendiline]
relative potency ([1]; vs NPS 467): as potent as NPS 467

CNc1ccc2oc(C[C@H]3O[C@@]4(CC[C@H]3C)O[C@H]([C@H](C)C(=O)c3ccc[nH]3)[C@H](C)C[C@H]4C)nc2c1C(=O)O [A23187]
effect on activated chloride currents [3]: activated

CCOC(=O)C1=C(C)NC(C)=C(C(=O)OC)C1c1cccc([N+](=O)[O-])c1 (stereo not shown) [nitrendipine]
effect on basal [Ca2+]i or increases evoked by extracellular Ca2+ ([1]; 1 μM): None

N[C@@H](CCC(=O)O)C(=O)O [glutamate]
response of bovine parathyroid cells or Xenopus oocytes expressing calcium receptors to mGluR agonists [1]: did not respond

CCC[C@@H]1C[C@@H](C(=O)N[C@@H]([C@H]2O[C@H](SC)[C@H](O)[C@@H](O)[C@H]2O)[C@@H](C)O)N(C)C1 [Lincomycin]
mobilization of intracellular Ca2+ [1]: without effect | net positive charge (net positive charge; pH 7.3): +1

NC[C@H]1O[C@H](O[C@H]2[C@H](O)[C@@H](O[C@H]3O[C@H](CO)[C@@H](O)[C@H](N)[C@H]3O)[C@H](N)C[C@@H]2N)[C@H](O)[C@@H](O)[C@@H]1O [Kanamycin]
mobilization of intracellular Ca2+ [1]: without effect | net positive charge (net positive charge; pH 7.3): ~+4.5

CC(NCCCc1ccccc1)c1ccccc1 (stereo not shown) [compound 1D]
relative potency ([1]; vs R-fendiline): nearly as potent as the parent molecule

COC(=O)C1=C(C)NC(C)=C([N+](=O)[O-])C1c1ccccc1C(F)(F)F (stereo not shown) [BAY K 8644]
effect on basal [Ca2+]i or increases evoked by extracellular Ca2+ ([1]; 1 μM): None

NCCCN1CCCN(CCCN)CCN(CCCN)CCCN(CCCN)CC1 [NPS 383]
Net (+) Charge (Table 1) (net positive charge): +8
